Source: the Kinase Knowledgebase extract (Sharma et al. 2016)

What was measured:
PIK3CB = PIK3CB (UniProt P42338); experiment: PIK3-beta Kinase Inhibition
PIK3CD = PIK3CD (UniProt O00329); experiment: PIK3-delta Kinase Inhibition
PIK3CG = PIK3CG (UniProt P48736); experiment: PIK3-gamma Kinase Inhibition
PIK3CA = PIK3CA (UniProt P42336); experiment: PIK3-alpha Kinase Inhibition
PIK3CA, sequence (P42336 whole entry, looked up): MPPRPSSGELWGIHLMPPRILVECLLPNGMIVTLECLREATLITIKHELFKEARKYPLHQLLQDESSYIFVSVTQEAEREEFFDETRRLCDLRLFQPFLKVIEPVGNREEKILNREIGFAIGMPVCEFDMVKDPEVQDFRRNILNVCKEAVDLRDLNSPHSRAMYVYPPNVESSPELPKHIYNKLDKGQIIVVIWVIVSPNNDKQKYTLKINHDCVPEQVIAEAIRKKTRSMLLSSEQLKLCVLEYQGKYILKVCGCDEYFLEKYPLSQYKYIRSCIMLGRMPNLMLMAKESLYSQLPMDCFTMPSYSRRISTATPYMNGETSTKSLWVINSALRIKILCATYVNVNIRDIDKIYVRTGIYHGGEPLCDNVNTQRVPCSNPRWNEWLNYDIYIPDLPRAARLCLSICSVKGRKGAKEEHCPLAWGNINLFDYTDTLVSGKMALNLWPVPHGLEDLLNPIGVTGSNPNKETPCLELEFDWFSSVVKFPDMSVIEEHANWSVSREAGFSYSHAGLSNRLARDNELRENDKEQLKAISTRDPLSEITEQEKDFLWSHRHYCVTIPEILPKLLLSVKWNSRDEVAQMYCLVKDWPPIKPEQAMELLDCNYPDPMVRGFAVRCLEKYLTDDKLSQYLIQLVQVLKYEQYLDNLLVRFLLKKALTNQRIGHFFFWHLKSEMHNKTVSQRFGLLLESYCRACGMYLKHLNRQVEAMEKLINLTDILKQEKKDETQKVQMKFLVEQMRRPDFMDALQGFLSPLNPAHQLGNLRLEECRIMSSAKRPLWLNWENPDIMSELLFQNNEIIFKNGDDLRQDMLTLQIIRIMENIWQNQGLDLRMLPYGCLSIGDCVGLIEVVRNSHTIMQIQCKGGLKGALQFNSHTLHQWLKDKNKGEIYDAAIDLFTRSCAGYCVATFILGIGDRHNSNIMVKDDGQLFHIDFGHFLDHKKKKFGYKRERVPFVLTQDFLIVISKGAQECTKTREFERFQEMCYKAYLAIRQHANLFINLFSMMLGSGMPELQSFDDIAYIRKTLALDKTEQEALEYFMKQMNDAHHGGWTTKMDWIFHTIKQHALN

PIK3CB, sequence (P42338 whole entry, looked up): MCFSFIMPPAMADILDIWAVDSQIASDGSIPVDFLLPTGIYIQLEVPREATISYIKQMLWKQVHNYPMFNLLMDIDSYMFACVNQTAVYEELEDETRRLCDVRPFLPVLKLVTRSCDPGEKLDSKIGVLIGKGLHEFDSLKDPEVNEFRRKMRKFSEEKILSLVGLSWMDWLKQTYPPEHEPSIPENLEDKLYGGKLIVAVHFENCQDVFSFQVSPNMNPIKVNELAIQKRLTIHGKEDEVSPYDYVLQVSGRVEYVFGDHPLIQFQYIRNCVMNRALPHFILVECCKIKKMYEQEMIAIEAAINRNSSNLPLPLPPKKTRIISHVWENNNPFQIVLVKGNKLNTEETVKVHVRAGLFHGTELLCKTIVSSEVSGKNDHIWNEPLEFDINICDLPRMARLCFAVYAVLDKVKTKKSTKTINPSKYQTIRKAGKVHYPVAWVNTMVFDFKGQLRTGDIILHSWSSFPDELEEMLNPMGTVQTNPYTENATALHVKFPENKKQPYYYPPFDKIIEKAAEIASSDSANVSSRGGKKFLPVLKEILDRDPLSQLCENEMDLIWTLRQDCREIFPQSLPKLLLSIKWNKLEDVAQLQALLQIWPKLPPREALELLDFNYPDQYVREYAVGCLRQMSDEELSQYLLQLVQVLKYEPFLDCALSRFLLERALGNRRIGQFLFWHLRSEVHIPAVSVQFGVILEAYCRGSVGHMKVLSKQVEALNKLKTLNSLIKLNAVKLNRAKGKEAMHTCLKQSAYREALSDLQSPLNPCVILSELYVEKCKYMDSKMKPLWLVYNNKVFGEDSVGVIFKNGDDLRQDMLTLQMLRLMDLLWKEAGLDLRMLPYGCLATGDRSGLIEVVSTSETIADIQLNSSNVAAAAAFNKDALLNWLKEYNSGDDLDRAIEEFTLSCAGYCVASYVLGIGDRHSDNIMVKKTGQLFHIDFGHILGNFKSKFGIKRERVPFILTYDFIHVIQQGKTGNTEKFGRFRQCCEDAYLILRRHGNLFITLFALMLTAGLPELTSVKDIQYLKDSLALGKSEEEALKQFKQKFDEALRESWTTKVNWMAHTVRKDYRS
PIK3CG, sequence (P48736 whole entry, looked up): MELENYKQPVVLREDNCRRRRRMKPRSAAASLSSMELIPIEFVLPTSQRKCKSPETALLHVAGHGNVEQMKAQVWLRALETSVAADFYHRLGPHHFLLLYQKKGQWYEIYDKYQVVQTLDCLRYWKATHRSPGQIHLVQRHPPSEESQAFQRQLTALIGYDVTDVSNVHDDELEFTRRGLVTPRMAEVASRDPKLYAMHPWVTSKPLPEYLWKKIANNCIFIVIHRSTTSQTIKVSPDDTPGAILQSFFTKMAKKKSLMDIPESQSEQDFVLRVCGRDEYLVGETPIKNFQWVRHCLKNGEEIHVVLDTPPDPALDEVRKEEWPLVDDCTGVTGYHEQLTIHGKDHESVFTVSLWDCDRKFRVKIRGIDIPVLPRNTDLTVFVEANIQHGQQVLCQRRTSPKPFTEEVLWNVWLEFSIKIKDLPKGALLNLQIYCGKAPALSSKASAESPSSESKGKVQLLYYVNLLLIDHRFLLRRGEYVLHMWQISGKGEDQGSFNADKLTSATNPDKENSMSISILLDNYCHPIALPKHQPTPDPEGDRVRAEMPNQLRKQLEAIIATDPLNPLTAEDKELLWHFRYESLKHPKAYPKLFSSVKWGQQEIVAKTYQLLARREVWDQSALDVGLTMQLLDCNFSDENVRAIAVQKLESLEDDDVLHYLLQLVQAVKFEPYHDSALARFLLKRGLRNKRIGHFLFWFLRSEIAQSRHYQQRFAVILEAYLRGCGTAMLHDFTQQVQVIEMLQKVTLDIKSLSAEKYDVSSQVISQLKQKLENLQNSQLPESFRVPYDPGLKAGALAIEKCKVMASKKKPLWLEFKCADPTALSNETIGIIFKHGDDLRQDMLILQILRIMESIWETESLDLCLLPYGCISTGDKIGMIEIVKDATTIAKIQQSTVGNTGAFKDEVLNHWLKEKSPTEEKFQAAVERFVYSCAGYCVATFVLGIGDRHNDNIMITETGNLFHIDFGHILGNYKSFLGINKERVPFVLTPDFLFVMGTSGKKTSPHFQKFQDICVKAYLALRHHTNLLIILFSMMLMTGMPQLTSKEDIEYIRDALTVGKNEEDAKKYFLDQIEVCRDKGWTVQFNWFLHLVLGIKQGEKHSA
PIK3CD, sequence (O00329 whole entry, looked up): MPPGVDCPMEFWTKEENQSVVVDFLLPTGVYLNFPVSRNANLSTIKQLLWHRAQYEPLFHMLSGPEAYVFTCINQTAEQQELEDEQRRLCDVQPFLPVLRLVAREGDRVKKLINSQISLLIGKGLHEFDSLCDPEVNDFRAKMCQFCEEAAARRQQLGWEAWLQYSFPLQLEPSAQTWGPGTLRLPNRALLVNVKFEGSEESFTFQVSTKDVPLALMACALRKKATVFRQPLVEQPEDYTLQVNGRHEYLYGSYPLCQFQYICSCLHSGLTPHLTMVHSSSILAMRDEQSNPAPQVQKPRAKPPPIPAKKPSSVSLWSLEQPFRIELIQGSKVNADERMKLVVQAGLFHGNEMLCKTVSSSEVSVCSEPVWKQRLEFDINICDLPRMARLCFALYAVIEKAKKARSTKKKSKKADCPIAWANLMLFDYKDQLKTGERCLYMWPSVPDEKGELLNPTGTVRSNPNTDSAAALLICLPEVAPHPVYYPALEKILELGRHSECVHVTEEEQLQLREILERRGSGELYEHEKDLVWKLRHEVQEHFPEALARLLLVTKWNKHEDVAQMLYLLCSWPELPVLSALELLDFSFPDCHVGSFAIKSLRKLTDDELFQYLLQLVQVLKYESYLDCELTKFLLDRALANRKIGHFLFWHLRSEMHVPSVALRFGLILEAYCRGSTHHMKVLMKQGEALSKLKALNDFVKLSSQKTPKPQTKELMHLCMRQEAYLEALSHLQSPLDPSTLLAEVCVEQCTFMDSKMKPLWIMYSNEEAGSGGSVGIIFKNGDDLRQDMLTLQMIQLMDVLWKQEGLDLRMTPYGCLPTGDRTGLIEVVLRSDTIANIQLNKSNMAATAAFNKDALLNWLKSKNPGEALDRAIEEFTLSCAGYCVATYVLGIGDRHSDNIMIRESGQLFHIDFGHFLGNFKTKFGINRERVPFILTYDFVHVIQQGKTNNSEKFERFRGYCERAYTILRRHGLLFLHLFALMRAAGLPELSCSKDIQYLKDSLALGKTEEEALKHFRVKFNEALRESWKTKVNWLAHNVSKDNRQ

SMILES	IC50 (PIK3CB)	IC50 (PIK3CD)	IC50 (PIK3CG)	IC50 (PIK3CA)	IC80 (PIK3CB)
O=Cc1ccc(N2CCOCC2)cc1O	2.8 µM	–	–	–	–
Cc1cc(NCc2ccccc2C)c2nc(N3CCOCC3)cc(=O)n2c1	0.11 µM	–	–	–	–
Cc1cccc(CNc2cc(C)cn3c(=O)cc(N4CCOCC4)nc23)c1	0.99 µM	0.39 µM	25 µM	1.8 µM	–
O=c1cc(N2CCOCC2)oc2ccccc12	7.5 µM	13 µM	100 µM	45 µM	–
O=C(CCl)c1ccc(N2CCOCC2)cc1O	–	4.8 µM	70 µM	30 µM	–
O=C(c1ccccc1)c1ccc(N2CCOCC2)cc1O	3.7 µM	–	–	–	–
Nc1cc(N2CCOCC2)ccc1[N+](=O)[O-]	23 µM	24 µM	100 µM	100 µM	–
CC(=O)c1ccc(N2CCOCC2)cc1O	–	3.8 µM	10 µM	16 µM	0.99 µM
O=c1cc(N2CCOCC2)oc2c(-c3ccccc3)cccc12	–	6 µM	–	–	–
Cc1ccccc1Oc1cccc2c(=O)cc(N3CCOCC3)[nH]c12	0.13 µM	0.63 µM	100 µM	61 µM	–

Continued, values first:

IC50 (PIK3CB)	IC50 (PIK3CD)	IC50 (PIK3CG)	IC50 (PIK3CA)	IC80 (PIK3CB)	SMILES
3.3 µM	3.8 µM	> 100 µM	9 µM	–	Cc1cc(Nc2ccccc2C)c2nc(N3CCOCC3)cc(=O)n2c1
20 µM	10 µM	> 100 µM	50 µM	–	COc1ccccc1Nc1cc(C)cn2c(=O)cc(N3CCOCC3)nc12
14 µM	5 µM	> 100 µM	10 µM	–	Cc1cc(Nc2ccc(C)c(C)c2)c2nc(N3CCOCC3)cc(=O)n2c1
0.16 µM	0.15 µM	10 µM	8.1 µM	–	Cc1cc(NCc2ccccc2)c2nc(N3CCOCC3)cc(=O)n2c1
3.5 µM	3.3 µM	100 µM	6.2 µM	–	Cc1cc(Nc2cccc(C)c2C)c2nc(N3CCOCC3)cc(=O)n2c1
9.9 µM	8.5 µM	> 100 µM	58 µM	–	Cc1cc(Br)c2nc(N3CCOCC3)cc(=O)n2c1
18 µM	6.9 µM	38 µM	14 µM	–	Cc1cc(-c2cccc(N)c2)c2nc(N3CCOCC3)cc(=O)n2c1
